Laboratory results: ChEMBL document CHEMBL1201862, “PubChem BioAssay data set” (2004)
Calls of active or inactive are those of the source.

Assays:
Cytochrome P450 3A4 = Cytochrome P450 3A4 (Homo sapiens, UniProt P08684);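 further: CYP3A4 tested as one member of a cytochrome P450 panel screen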
Cytochrome P450 2D6 = Cytochrome P450 2D6 (Homo sapiens, UniProt P10635);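 further: CYP2D6 member of a cytochrome P450 panel assay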
HeLa = experiment: ATP-based viability loss in HeLa cells – cell-based, CellTiter-Glo luminescence, cherry-pick samples, cytotoxicity control for MITF activator project, dose response (AID 540259); assay type: functional; details: Homo sapiens
H9c2 = experiment: cells; assay type: functional, cell-based; details: Rattus norvegicus, H9c2, Myocardium;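 further: confirmatory concentration-response retest of ultra-high-throughput screening hits for modulation of myocardial damage; cell death induced by hydrogen peroxide oxidative stress; compound pretreatment for 60 min then peroxide exposure for 2 h; potency is for protecting the cells against peroxide damage rather than for killing them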
HEK293 = experiment: EBV LMP1 TES2 canonical NF-kB signalling blockers – cell-based, HEK293, luciferase, cherry-pick, dose response (AID 588343); assay type: functional; details: Homo sapiens
cells = assay type: functional
[1] = biological target: 26S proteasome non-ATPase regulatory subunit 14 (Homo sapiens, UniProt O00487); experiment: inhibition of proteasome subunit RPN11 – biochemical, fluorescence polarization, uHTS hits, confirmation (AID 602368); assay type: functional
Prothrombin = Prothrombin (Bos taurus, UniProt P00735); experiment: thrombin protease inhibitors – biochemical, fluorescence polarization, uHTS hits, dose response (AID 602369); assay type: functional
[2] = biological target: 72 kDa type IV collagenase (Homo sapiens, UniProt P08253); experiment: Dose Response validation of uHTS RPN11 inhibitor hits using a MMP-2 Fluorescence assay.; assay type: functional
[3] = test system: Streptococcus sp. 'group A'; experiment: Streptococcus pyogenes SK(-)GAS viability under kanamycin – luminescence, BacTiterGlo, confirmation, counter-screen for streptokinase expression inhibitor project, dose response (AID 1900); assay type: functional, organism-based
Streptococcus = experiment: GAS UMAA2166 growth inhibition – luminescence, BacTiterGlo, counter-screen for streptokinase expression inhibitor project, dose response (AID 1915); assay type: functional, organism-based;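 further: potency for reduction of bacterial viability or growth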
Escherichia coli = experiment: microbe, parasite or virus in culture
[4] = biological target: Heat shock protein HSP 90-alpha (Homo sapiens, UniProt P07900); assay type: functional, organism-based
[5] = biological target: T1, Replicative DNA helicase DnaB (Mycobacterium tuberculosis, UniProt P9WMR3); experiment: DnaB intein splicing inhibitors, dose response, biochemical, cell-free fluorescence (AID 449749); assay type: functional
T1 sequence (P9WMR3 whole entry): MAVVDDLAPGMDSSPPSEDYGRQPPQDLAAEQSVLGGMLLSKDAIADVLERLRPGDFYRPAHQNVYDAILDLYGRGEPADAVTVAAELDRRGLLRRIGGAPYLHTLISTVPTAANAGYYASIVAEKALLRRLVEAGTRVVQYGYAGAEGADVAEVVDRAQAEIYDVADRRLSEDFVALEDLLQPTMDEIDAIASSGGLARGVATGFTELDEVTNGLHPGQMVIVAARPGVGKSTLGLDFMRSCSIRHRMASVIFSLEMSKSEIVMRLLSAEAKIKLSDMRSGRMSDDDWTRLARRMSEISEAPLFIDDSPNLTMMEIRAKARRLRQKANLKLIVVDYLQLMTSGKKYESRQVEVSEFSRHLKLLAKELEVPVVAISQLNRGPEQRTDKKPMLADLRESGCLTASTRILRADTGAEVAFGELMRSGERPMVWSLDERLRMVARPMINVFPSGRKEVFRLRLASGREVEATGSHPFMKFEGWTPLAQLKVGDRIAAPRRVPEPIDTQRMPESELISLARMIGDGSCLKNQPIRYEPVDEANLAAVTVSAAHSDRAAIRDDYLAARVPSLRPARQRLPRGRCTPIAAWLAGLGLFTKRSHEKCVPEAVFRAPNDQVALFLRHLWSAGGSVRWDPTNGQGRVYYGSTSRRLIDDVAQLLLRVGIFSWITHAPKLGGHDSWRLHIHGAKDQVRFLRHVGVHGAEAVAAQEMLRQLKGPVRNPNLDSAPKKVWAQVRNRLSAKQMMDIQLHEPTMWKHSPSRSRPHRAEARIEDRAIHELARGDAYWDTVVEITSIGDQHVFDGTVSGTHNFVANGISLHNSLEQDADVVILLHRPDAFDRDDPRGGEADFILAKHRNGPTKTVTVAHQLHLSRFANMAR

Protein RecA = biological target: T2, Protein RecA (Mycobacterium tuberculosis, UniProt P9WHJ3); experiment: Fluorescence Cell-Free Homogeneous Dose Retest to Identify Inhibitors of RecA-Intein Splicing Activity. [Related pubchem assays (depositor defined):AID2097, AID2223, AID489010, AID492950]; assay type: functional
T2 sequence (P9WHJ3 whole entry): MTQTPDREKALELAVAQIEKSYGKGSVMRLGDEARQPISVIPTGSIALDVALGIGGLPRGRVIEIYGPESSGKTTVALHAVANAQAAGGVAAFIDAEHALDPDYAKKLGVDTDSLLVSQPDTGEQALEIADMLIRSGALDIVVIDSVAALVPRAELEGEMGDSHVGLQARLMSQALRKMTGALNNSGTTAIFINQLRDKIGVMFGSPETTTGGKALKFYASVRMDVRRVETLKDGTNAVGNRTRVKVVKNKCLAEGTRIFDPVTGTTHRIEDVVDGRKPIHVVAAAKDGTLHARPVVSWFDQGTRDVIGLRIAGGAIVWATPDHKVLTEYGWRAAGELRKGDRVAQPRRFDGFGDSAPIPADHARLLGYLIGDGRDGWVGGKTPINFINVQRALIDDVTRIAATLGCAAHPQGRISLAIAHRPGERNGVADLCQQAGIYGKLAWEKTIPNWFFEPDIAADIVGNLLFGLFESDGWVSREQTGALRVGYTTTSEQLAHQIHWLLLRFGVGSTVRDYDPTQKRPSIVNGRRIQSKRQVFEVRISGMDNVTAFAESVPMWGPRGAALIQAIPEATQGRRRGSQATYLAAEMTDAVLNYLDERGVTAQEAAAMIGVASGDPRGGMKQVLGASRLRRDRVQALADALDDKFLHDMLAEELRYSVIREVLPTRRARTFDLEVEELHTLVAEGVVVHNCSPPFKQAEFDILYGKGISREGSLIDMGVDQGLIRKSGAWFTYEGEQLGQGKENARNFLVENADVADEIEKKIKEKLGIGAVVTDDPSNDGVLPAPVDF

[6] = biological target: T3, Heat shock factor protein 1 (Mus musculus, UniProt P38532); experiment: enhancement of HSF1-driven luciferase signal – cell-based, NIH3T3, luminescence, dose retest, confirmation (AID 435004); assay type: functional;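 further: stress induced by proteasome inhibitor MG132 added 30 min after compound; luciferase reporter driven by HSF1 response element in NIH3T3 cells; actives raise luminescence as potentiators of the MG132 stress response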
T3 sequence (P38532 whole entry): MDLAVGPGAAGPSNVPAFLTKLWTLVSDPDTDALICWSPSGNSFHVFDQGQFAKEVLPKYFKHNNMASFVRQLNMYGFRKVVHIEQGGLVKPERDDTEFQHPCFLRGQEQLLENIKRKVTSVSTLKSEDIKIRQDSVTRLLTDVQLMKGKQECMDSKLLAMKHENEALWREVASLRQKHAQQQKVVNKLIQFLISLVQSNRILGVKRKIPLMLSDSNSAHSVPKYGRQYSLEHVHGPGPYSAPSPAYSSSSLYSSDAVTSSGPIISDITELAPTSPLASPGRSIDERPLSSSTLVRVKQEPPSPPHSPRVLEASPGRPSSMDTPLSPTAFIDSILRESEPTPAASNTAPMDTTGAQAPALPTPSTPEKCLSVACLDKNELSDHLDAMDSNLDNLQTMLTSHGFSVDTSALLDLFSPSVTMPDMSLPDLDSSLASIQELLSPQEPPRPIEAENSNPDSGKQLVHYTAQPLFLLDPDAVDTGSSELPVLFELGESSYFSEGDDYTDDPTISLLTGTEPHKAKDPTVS

[7] = alpha-synuclein stem-loop luciferase translation blockers – H4 neuroglioma cells, luminescence, confirmation (AID 1988); assay type: functional, cell-based
[8] = blockade of melanocortin 4 receptor signaling – cell-based, plate reader, cherry pick, counter-screen for LGR2 antagonist project, dose response (AID 743444); assay type: functional;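 further: transfected HEK 293 cells stimulated with alpha-MSH peptide; potency of inhibitors of the alpha-MSH evoked signal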
[9] = Luminescence Cell-Based Dose Response HTS to Identify Inhibitors of 5'UTR Stem-Loop Driven Prion Protein mRNA Translation in H4 Neuroglioblastoma Cells. [Related pubchem assays: 1827 (Project Summary), 1813 (Primary HTS)]; assay type: functional
[10] = luciferase reporter signal suppression in cells – H4 neuroglioma cells, luminescence, dose response (AID 1990); assay type: functional, cell-based
[11] = blockers of bursicon-stimulated LGR2 cAMP reporter – cell-based, HEK293, CRE-luciferase reporter, cherry pick, set 2, dose response (AID 743343); assay type: functional;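 further: transfected cells were stimulated with diluted bursicon conditioned medium after compound addition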
Cytochrome P450 2C19 = Cytochrome P450 2C19 (Homo sapiens, UniProt P33261); experiment: Cytochrome panel assay with activity outcomes. Panel member name: p450-cyp2c19 Compounds with AC50 equal or less than 10 uM are considered active; assay type: functional
Chain of Cytochrome P450 2C19 (P33261 whole entry): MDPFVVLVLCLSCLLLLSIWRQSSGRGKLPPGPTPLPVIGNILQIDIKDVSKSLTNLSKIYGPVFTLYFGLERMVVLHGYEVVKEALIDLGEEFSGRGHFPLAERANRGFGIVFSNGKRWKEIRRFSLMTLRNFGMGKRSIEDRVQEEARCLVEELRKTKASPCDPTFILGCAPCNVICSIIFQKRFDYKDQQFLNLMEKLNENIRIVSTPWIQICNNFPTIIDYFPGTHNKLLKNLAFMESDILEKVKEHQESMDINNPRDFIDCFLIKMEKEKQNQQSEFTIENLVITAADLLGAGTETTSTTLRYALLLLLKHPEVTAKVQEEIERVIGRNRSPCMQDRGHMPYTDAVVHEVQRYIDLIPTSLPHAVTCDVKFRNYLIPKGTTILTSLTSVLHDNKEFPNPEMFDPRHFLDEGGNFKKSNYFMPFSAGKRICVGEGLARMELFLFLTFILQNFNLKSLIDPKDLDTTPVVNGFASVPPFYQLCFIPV

Chain of 72 kDa type IV collagenase (P08253 whole entry): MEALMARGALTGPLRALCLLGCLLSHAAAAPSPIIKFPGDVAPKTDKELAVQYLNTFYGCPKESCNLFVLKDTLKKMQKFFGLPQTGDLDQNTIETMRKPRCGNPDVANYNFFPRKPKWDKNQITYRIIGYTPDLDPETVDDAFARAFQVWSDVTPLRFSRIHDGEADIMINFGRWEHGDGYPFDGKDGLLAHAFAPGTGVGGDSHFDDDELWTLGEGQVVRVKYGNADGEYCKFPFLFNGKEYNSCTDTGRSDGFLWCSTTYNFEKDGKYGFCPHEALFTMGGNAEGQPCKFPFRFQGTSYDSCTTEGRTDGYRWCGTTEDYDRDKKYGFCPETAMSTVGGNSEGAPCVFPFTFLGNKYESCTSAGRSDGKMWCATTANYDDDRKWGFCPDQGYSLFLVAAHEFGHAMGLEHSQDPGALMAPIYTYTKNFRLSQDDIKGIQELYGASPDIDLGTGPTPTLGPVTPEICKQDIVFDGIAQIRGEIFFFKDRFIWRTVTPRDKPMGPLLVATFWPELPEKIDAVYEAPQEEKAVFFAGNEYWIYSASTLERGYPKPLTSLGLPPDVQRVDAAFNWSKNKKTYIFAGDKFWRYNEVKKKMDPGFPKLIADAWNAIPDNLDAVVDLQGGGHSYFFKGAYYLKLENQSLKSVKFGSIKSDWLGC
Chain of 26S proteasome non-ATPase regulatory subunit 14 (O00487 whole entry): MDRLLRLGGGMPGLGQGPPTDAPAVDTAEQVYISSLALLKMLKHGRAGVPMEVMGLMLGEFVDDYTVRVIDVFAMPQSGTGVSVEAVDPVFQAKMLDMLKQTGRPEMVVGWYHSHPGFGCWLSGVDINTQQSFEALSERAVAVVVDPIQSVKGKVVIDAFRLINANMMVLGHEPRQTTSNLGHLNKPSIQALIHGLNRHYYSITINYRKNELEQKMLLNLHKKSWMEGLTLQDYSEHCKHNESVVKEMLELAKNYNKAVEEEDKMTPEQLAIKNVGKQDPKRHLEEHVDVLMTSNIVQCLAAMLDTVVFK
Chain of Cytochrome P450 3A4 (P08684 whole entry): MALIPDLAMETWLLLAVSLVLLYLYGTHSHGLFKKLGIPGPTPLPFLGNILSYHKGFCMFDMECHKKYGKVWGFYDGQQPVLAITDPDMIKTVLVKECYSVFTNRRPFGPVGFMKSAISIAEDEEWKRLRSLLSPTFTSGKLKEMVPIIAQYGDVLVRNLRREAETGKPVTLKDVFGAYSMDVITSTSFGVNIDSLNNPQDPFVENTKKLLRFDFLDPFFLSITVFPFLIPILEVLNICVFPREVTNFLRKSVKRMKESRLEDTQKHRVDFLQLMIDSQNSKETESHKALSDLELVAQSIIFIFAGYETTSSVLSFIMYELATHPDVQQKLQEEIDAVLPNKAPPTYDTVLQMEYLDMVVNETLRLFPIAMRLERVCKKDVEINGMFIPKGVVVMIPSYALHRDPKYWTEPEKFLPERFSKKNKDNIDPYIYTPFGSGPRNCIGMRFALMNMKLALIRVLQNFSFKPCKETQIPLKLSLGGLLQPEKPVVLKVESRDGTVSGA
Chain of Cytochrome P450 2D6 (P10635 whole entry): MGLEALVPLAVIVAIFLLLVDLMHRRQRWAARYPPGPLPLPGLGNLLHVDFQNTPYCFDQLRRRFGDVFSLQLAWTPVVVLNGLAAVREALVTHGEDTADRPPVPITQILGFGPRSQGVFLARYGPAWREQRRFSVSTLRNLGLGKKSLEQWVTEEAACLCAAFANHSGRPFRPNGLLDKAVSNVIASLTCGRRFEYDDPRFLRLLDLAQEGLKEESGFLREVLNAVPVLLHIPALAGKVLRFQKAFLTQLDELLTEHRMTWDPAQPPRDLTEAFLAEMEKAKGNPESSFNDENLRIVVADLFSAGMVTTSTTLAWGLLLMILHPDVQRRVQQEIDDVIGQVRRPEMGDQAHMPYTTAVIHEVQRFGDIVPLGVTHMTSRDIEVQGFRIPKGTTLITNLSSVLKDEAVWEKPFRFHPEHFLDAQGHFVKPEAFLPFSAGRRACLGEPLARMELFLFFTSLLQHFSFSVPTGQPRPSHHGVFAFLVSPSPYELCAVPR

Compound: O=C1CCCCCC1C1(O)C(=O)Nc2ccc(Br)cc21 (stereo not drawn)
- AC50 (Cytochrome P450 3A4): 17.8 µM (inconclusive)
- AC50 (Cytochrome P450 2D6): inconclusive

Compound: COc1cc2c(C)nc3c(cnn3-c3ccccc3)c2cc1OC
- AC50 (HeLa): 86.7 µM (active)

Compound: COc1ccc(/C=N/NC(=O)c2ccc(COc3cccc4cccnc34)cc2)cc1OC
- IC50 (H9c2): > 79 µM (inactive)

Compound: CCc1ccc(/C=N/NC(=O)c2ccccn2)cc1
- AC50 (HEK293): 3.11 µM (active)
- IC50 (cells): 5.9 µM (active)

Compound: COc1ccc(/C=C2\N=C(C)OC2=O)cc1[N+](=O)[O-]
- AC50 (HEK293): 237 µM (active)

Compound: Cn1c(=O)c2cc(S(=O)(=O)NC(C(=O)Nc3cccc(F)c3)c3ccccc3)ccc2n(C)c1=O (stereo not drawn)
- IC50 [1]: 92.8 µM (active)
- IC50 (Prothrombin): > 100 µM (inactive)
- IC50 [2]: > 100 µM (inactive)

Compound: CN1CCN(c2cc3c(cc2F)c(=O)c(C(=O)O)cn3CCF)CC1
- EC50 [3]: 5.58 µM (active)
- EC50 (Streptococcus): 7.64 µM (active)
- IC50 (cells): 3.08 µM (active)
- AC50 (Escherichia coli): 2.57 µM (active)

Compound: CN1CCN(C(c2ccc(Cl)cc2)c2cc(Cl)c3cccnc3c2O)CC1 (stereo not drawn)
- EC50 [3]: 1.92 µM (active)
- IC50 [1]: 56.4 µM (active)
- IC50 (Prothrombin): 75.6 µM (active)
- AC50 [4]: 0.77 µM (active)
- EC50 (Streptococcus): 3.8 µM (active)
- AC50 [5]: > 380 µM (inactive)
- EC50 (Protein RecA): 2.42 µM (active)
- EC50 [6]: > 260 µM (inconclusive)
- IC50 [2]: 14.8 µM (active)

Compound: O=C(Nc1ccccn1)c1ccccc1
- AC50 (HeLa): 83.2 µM (active)

Compound: CCOC(=O)c1cn2nc(N3CCCC3)ccc2n1
- AC50 (HEK293): 3.17 µM (active)
- EC50 [7]: 5.55 µM (active)
- AC50 [8]: 5.54 µM (active)
- EC50 [9]: 2.56 µM (active)
- EC50 [10]: 8.17 µM (inconclusive)
- AC50 [11]: 5.94 µM (active)

Compound: CCCN1CCN(C(=O)CN2C(=O)CC(C)(C)S(=O)(=O)c3ccccc32)CC1
- AC50 (Cytochrome P450 2C19): inconclusive
- AC50 (Cytochrome P450 3A4): 12.6 µM (inconclusive)
- AC50 (Cytochrome P450 2D6): inconclusive
